Laboratory results taken from patent US20110008465A1, “SESQUITERPENE FORMULATIONS, KITS AND METHODS OF USE THEREOF” (priority 2007, published 2011).
Marks after values point to notes of the source that are not given here.

How the values were obtained:
[1] = test system: Lewis lung carcinoma; experiment: In vivo potentiating effect of Formulation A on paclitaxel against Lewis lung cancer-bearing mice; settings: for CTW (estimated weight) / T/C (estimated weight) / T/C (real weight) / TGI (estimated weight) / TGI (real weight) / Tumor weight (real weight): i.v. day 1 to 4, day 18
Protocol: (§1) Cells: The Lewis lung carcinoma cell line was used (#CRL-1642, lot #4372266, ATCC). […] Cells were then harvested with up and down only. Cells were counted using a hemacytometer and resuspended in DMEM medium without SVF.
Mice: 6-weeks old C57BL/6 male mice were used Charles Rivers Inc., St-Constant, QC). […] The mice of each group (n=10) were treated with a volume of 100 μL containing saline, Formulation A (see Example 5), paclitaxel or combination of the Formulation A with paclitaxel.
(§2) Inoculation: 100 μL of a solution containing 1×10^7 cells/mL were inoculated subcutaneously in each mouse.
Treatment: Lewis lung carcinoma cells were inoculated subcutaneous on C57BL/6 mice on day 0. The potentiating effect of the Formulation A combined with paclitaxel was evaluated against Lewis lung carcinoma-bearing mice (C57BL/6). The mice of each group (n=10) were treated with a volume of 100 μL containing saline, Formulation A, paclitaxel or a combination of Formulation A with paclitaxel in doses presented in Table 10 below: The treatments were administered intravenous on day 1 to 4. The length and the width of tumor were measured with calliper on day 8 to day 18. In the end of the experiment (day 18), the tumors were extracted and weighed.
Values of p<0.05 were considered statistically significant.
(b) Tumor weight (TW): The TW of each tumor was measured on day 18 after the sacrifice of each mouse. TW values were averaged within each group. […] Values of p<0.05 were considered statistically significant.

[2] = test system: A-549 (lung cancer); experiment: Chou and Talalay combination assay with beta-caryophyllene; assay type: cell-based, human; settings: anticancer drug in combination with beta-caryophyllene; Chou and Talalay CI; 48 h
Protocol: (§3) Each solution was prepared fresh and use within 1 hour after preparation.
(§4) Cells were then harvested using trypsine-EDTA. Cells were counted using a hemocytometer and resuspended in DMEM+10% FBS medium.
(§5) Proliferation assay: Increasing concentrations of the anticancer agents and/or beta-caryophyllene were added to 96-well plate (100 μL per well). The final concentration of solvent in the culture medium was maintained below 0.5% (volume/volume) to avoid solvent toxicity.
(§6) The cells were incubated for 48 h at 37° C. and 5% CO2. Cytotoxicity was assessed using the resazurin reduction test (O'Brien et al., 2000). Fluorescence was measured on an automated 96-well Fluoroskan Ascent FI™ plate reader (Labsystems) using excitation and emission wavelengths of 530 nm and 590 nm, respectively. Resazurin was then removed.
(§7) Microplates were frozen at −20° C. overnight. Plates were thawed, a volume of 100 μl of 0.01% SDS in water was added to the wells, the plates were shaken at room temperature for 3 hours and then frozen once more at −20° C. overnight. […] Plates were shaken in the dark (at room temperature) for at least 2 hours, and fluorescence was measured on an automated 96-well Fluoroskan Ascent FI™ plate reader (Labsystems) using excitation and emission wavelengths of 360 nm and 460 nm, respectively.
(§8) Results were analyzed using the Chou and Talalay method (9) and may be interpreted as follow: Cl>1 represents an antagonist effect of beta-caryophyllene with the corresponding anticancer agent; Cl=1 represents an additive effect of beta-caryophyllene with the corresponding anticancer agent; Cl<1 represents a potentiating effect of beta-caryophyllene with the corresponding anticancer agent.

[3] = test system: DLD-1 (colon cancer); experiment: as above; assay type: cell-based, human; settings: anticancer drug in combination with beta-caryophyllene; Chou and Talalay CI; 48 h
Protocol: as §3, §4, §5, §6, §7, §8

[4] = test system: MCF-7 (breast cancer); experiment: as above; assay type: cell-based, human; settings: anticancer drug in combination with beta-caryophyllene; Chou and Talalay CI; 48 h
Protocol: as §3, §4, §5, §6, §7, §8

[5] = test system: MDA-MB-231 (breast cancer); experiment: as above; assay type: cell-based, human; settings: anticancer drug in combination with beta-caryophyllene; Chou and Talalay CI; 48 h
Protocol: as §3, §4, §5, §6, §7, §8

[6] = test system: PA-1 (ovary cancer); experiment: as above; assay type: cell-based, human; settings: anticancer drug in combination with beta-caryophyllene; Chou and Talalay CI; 48 h
Protocol: as §3, §4, §5, §6, §7, §8

[7] = test system: B16 (murine melanoma); experiment: as above; assay type: cell-based; settings: anticancer drug in combination with beta-caryophyllene; Chou and Talalay CI; 48 h
Protocol: as §3, §4, §5, §6, §7, §8

[8] = test system: GL-261 (murine glioblastoma); experiment: as above; assay type: cell-based; settings: anticancer drug in combination with beta-caryophyllene; Chou and Talalay CI; 48 h
Protocol: as §3, §4, §5, §6, §7, §8

[9] = test system: MEL-2 (human melanoma); experiment: as above; assay type: cell-based; settings: anticancer drug in combination with beta-caryophyllene; Chou and Talalay CI; 48 h
Protocol: as §3, §4, §5, §6, §7, §8

[10] = test system: U-251 (human glioblastoma); experiment: as above; assay type: cell-based; settings: anticancer drug in combination with beta-caryophyllene; Chou and Talalay CI; 48 h
Protocol: as §3, §4, §5, §6, §7, §8

[11] = test system: Panc 05.04 (pancreas cancer); experiment: as above; assay type: cell-based, Human; settings: in combination with beta-caryophyllene in ethanol (40-150 mM), 48 h
Protocol: Agent: […] Each solution was prepared fresh and use within 1 hour after preparation. 5 μL of each test article were added to 1 mL of culture medium for a final concentration of 0.5% of solvent and this concentration have no toxic effect on cells. Cells: The Panc 05.04 cell line was used. Cells were harvested using trypsine-EDTA. […] Cells were plated in 96-well microplates (BD Falcon) at a density of 7.5×10^3 cells per well for Chou and Talalay assay in 100 μL of culture medium and were allowed to adhere for 24 hours before treatment. Proliferation assay: Increasing concentrations of the anticancer agents and/or beta-caryophyllene were added to 96-well plate (100 μL per well). The final concentration of solvent in the culture medium was maintained below 0.5% (volume/volume) to avoid solvent toxicity. […] The cells were incubated for 48 h at 37° C. and 5% CO2. Cytotoxicity was assessed using the resazurin reduction test (8). […] Resazurin was then removed. Data analysis: Results were analyzed using the Chou and Talalay method (9) and may be interpreted as follow: […]

[12] = test system: Lewis lung carcinoma; experiment: In vivo potentiating effect of Formulation A on Taxotere against Lewis lung cancer-bearing mice; settings: i.v. days 1-4, day 18
Protocol: as §1
Mice: 6-weeks old C57BL/6 male mice were used (Charles Rivers Inc., St-Constant, QC).
as §2
The mice of each group (n=10) were treated with a volume of 100 μL containing saline, Formulation A of Example 5 above (hereinafter referred to as Formulation A), Taxotere™ or a combination of Formulation A with Taxotere™ in doses presented in Table 7 below: […]
Values of p<0.05 were considered statistically significant. The length and the width of tumor were measured with calliper on day 10 to day 18.

[13] = Toxicity of Formulation A and/or Taxotere treatments (body weight) on Lewis lung cancer-bearing mice; settings: for Loss of weight > 20% (n = 10): day 1 to day 8
Protocol: The toxicity of the treatments described in Table 7 above was determined using the body weight of mice.

Structure (SMILES): CC(=O)O[C@H]1C(=O)[C@@]2(C)[C@H]([C@H](OC(=O)c3ccccc3)[C@]3(O)C[C@H](OC(=O)[C@H](O)[C@@H](NC(=O)c4ccccc4)c4ccccc4)C(C)=C1C3(C)C)[C@]1(OC(C)=O)CO[C@@H]1C[C@@H]2O [Paclitaxel, paclitaxel]
- CTW (estimated weight) ([1]; paclitaxel 10 mg/kg): 568 ± 155 mg
- T/C (estimated weight) ([1]; paclitaxel 10 mg/kg): 81%
- T/C (real weight) ([1]; paclitaxel 10 mg/kg): 87%
- TGI (estimated weight) ([1]; paclitaxel 10 mg/kg): 19%
- TGI (real weight) ([1]; paclitaxel 10 mg/kg): 13%
- Tumor weight (real weight) ([1]; paclitaxel 10 mg/kg): 410 ± 90 mg
- CTW (estimated weight) ([1]; paclitaxel 20 mg/kg): 510 ± 274 mg
- T/C (estimated weight) ([1]; paclitaxel 20 mg/kg): 73%
- T/C (real weight) ([1]; paclitaxel 20 mg/kg): 91%
- TGI (estimated weight) ([1]; paclitaxel 20 mg/kg): 27%
- TGI (real weight) ([1]; paclitaxel 20 mg/kg): 9%
- Tumor weight (real weight) ([1]; paclitaxel 20 mg/kg): 420 ± 350 mg
- CTW (estimated weight) ([1]; paclitaxel 30 mg/kg): 446 ± 118^c,d mg
- T/C (estimated weight) ([1]; paclitaxel 30 mg/kg): 64%
- T/C (real weight) ([1]; paclitaxel 30 mg/kg): 81%
- TGI (real weight) ([1]; paclitaxel 30 mg/kg): 19%
- Tumor weight (real weight) ([1]; paclitaxel 30 mg/kg): 380 ± 200 mg
- effect on tumor growth (in words) ([1]; paclitaxel 10 and 20 mg/kg alone): do not inhibit significantly tumor growth
- Potentiating activity A-549 [2]: (3) (Moderate: 0.5 < CI < 0.8 at IC50)
- Potentiating activity DLD-1 [3]: (2) (High: CI below 0.5 at IC50)
- Potentiating activity MCF-7 [4]: (1) (Very High: CI equal or below 1 at IC20 and Cl below 0.6 to IC50)
- Potentiating activity MDA [5]: (3) (Moderate: 0.5 < CI < 0.8 at IC50)
- Potentiating activity PA-1 [6]: (2) (High: CI < 0.5 to IC50)
- Potentiating activity B16 [7]: (1) (Very High: potentiating or additive activity to IC20 and CI < 0.6 to IC50)
- Potentiating activity GL-261 [8]: (2) (High: CI < 0.5 to IC50)
- Potentiating activity MEL-2 [9]: (3) (Moderate: 0.5 < CI < 0.8 to IC50)
- Potentiating activity U-251 [10]: (1) (Very High: potentiating or additive activity to IC20 and CI < 0.6 to IC50)
- Potentiating activity Panc 05.04 [11]: Potentiating > IC80

Structure (SMILES): CC(=O)O[C@@]12CO[C@@H]1C[C@H](O)[C@@]1(C)C(=O)[C@H](O)C3=C(C)[C@@H](OC(=O)[C@H](O)[C@@H](NC(=O)OC(C)(C)C)c4ccccc4)C[C@@](O)([C@@H](OC(=O)c4ccccc4)[C@H]21)C3(C)C [Taxotere ™, docetaxel]
- CTW ([12]; Taxotere 5 mg/kg): 380 ± 116 mg
- T/C ([12]; Taxotere 5 mg/kg): 89%
- TGI ([12]; Taxotere 5 mg/kg): 11%
- TGI ([12]; Taxotere 5 mg/kg, listed as Taxotere™): about 11%
- CTW ([12]; Taxotere 10 mg/kg): 346 ± 107 mg
- T/C ([12]; Taxotere 10 mg/kg): 81%
- TGI ([12]; Taxotere 10 mg/kg): 19%
- CTW ([12]; Taxotere 15 mg/kg): 178 ± 112^c mg
- T/C ([12]; Taxotere 15 mg/kg): 42%
- TGI ([12]; Taxotere 15 mg/kg): 58%
- TGI ([12]; Taxotere 15 mg/kg, listed as Taxotere™): about 58%
- Potentiating activity Panc 05.04 [11]: Potentiating > IC10
- loss of weight (day 7) with regard to the initial weight (day 1) ([13]; Taxotere 5 mg/kg): about 0.55%
- Loss of weight > 20% (n = 10) ([13]; Taxotere 5 mg/kg): 0
- loss of weight (day 7) with regard to the initial weight (day 1) ([13]; Taxotere 10 mg/kg): ~3.33%
- Loss of weight > 20% (n = 10) ([13]; Taxotere 10 mg/kg): 0
- loss of weight (day 7) with regard to the initial weight (day 1) ([13]; Taxotere 15 mg/kg): about 13%
- Loss of weight > 20% (n = 10) ([13]; Taxotere 15 mg/kg): 7
